In assay [1] the target is CLC-0 (Torpedo marmorata, UniProt P21564, E166A). The assay can be described thus: cell-based.
Assay [2] concerns the target CLC-0 (Torpedo marmorata, UniProt P21564, E166G). The assay can be described thus: cell-based.

Chain of CLC-0 (Torpedo marmorata, UniProt P21564, E166A) (P21564 whole entry E166A): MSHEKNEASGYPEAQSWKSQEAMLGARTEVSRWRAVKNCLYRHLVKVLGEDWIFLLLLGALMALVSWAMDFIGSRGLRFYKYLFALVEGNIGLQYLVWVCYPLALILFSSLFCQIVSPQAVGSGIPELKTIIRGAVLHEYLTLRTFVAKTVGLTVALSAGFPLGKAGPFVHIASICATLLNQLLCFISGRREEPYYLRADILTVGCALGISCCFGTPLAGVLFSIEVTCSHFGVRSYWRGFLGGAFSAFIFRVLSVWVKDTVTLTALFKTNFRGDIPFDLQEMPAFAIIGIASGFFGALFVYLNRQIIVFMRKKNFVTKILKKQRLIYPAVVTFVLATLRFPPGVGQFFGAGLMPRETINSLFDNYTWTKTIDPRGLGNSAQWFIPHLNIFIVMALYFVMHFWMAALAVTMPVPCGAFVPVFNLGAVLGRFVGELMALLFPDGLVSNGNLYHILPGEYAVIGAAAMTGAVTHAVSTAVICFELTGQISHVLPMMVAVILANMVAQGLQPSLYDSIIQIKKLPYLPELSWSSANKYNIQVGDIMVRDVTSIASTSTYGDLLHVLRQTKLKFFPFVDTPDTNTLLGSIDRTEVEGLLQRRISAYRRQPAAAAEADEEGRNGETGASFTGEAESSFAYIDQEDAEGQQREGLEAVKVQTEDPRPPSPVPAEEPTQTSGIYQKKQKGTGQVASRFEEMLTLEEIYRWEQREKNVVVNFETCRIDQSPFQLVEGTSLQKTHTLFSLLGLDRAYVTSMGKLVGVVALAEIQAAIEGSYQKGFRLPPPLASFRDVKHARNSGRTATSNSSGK
Chain of CLC-0 (Torpedo marmorata, UniProt P21564, E166G) (P21564 whole entry E166G): as the sequence (P21564 whole entry E166A) above, with A166G counted along it

As usually defined, the IC50 is the concentration that inhibits the measured activity by half. Low values mean greater potency in that assay, high ones weaker potency in that assay. Turning to `CCCCCCCC(=O)O` [OA, octanoate], the IC50 on CLC-0 [1] was 120 ± 20 µM; against CLC-0 [2], 160 ± 10 µM.

Source of the values: paper PMC2606939 (The Journal of General Physiology, 2009).
